This assay addresses T1, IL-17A/A (Homo sapiens, UniProt Q16552).
T1 construct: purchased Genscript Z03228
T1 sequence (Q16552 24-155): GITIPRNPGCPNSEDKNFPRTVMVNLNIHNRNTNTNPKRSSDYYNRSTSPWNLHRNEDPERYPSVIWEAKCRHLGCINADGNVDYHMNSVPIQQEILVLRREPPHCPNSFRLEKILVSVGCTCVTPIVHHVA
Put plainly: HEK-Blue IL-17A/A inhibition assay (SEAP reporter). The note with it: HEK-Blue cells (HEK 293 expressing IL-17RA, IL-17RC, Act1); IL-17A/A stimulation; 20 hours; SEAP read at A630; 4-parameter fit. Type of assay: cell-based. The method, then:
The HEK-Blue #NC108637 […]. Cells were grown and prepared for assays according to the manufacturer's instructions. This cell line consists of HEK 293 cells that were designed to expressed IL-17R^A, IL-17RC, and the ActI adapter molecule, the combination of which. when stimulated by IL-17A/A activates a NFtcB promoter and drives expression of a recombinant Secreted Alkaline Phosphatase (SEAP) geneprotein. Media from the cells is then added to a development reagent (Quanti-Blue Substrate, Fisher #NC971 1613), and read at A630.
Compounds were titrated in DMSO. with a top final compound concentration of 10 uM, 1 uM, or 0.3 uM, and added to the cells immediately before adding IL-17A/A (Genscript #Z03228). The cells, compound, and IL-17A/A were then incubated for 20 hours before media was removed for SEAP analysis. The resulting inhibition curve was then analyzed using Graphpad Prism 7.0, and IC50 values were determined using a 4-parameter nonlinear fit. DMSO was added to a universal final concentration of 0.1% to optimze background.

Each structure is given as a SMILES string. Counter-ions that a name gives are not always drawn. Some results are limits rather than exact numbers.

Usually IC50 stands for the concentration that gives 50% inhibition. As for `CC(C)n1nccc1C(=O)N[C@H](C(=O)Nc1ccc([C@H](C)C(=O)N2CCOCCC2C(F)(F)F)cc1F)C(C1CC1)C1CC1` (stereo partly drawn) [Compound 45, N-((2S)-1,1-dicyclopropyl-3-((2-fluoro-4-((2S)-1-oxo-1-(5-(trifluoromethyl)-1,4-oxazepan-4-yl)propan-2-yl)phenyl)amino)-3-oxopropan-2-yl)-1-isopropyl-1H-pyrazole-5-carboxamide], the IC50 was in the range of 100 to 1000 nM.

In the case of `COc1cc(NC(=O)[C@@H](NC(=O)c2ccnn2C(C)C)C(C2CC2)C2CC2)c(F)cc1C(C)C(=O)N(C)CC(F)(F)F` (some centres unmarked) [Compound 176], the IC50 was under 100 nM.

With `COc1cc(NC(=O)[C@@H](NC(=O)c2ccnn2C(C)C)C(C2CC2)C2CC2)c(F)cc1C(C)C(=O)N1CC(O)CC1C(F)(F)F` (single isomer, unassigned) [Compound 182], the IC50 is over 1000 nM.

Turning to `Cc1cc(NC(=O)[C@@H](NC(=O)c2nonc2C)C2CCC(F)(F)CC2)c(F)cc1C(C)C(=O)N(C)CC(F)(F)F` (some centres unmarked) [Compound 198], the half-inhibitory concentration (IC50) lay in the range of 100 to 1000 nM.

On to `Cc1cc(NC(=O)[C@@H](NC(=O)c2ccnn2C(C)C)C(C2CC2)C2CC2)c(F)cc1C(C)C(=O)N1CC(O)CC1C(F)(F)F` (single isomer, unassigned) [Compound 173], for which the IC50 is under 100 nM.

`CC(C)n1nccc1C(=O)N[C@H](C(=O)Nc1ccc([C@H](C)C(=O)N2CCNCC2C(F)(F)F)cc1F)C(C1CC1)C1CC1` (stereo partly drawn) [Compound 101, N-((2S)-1,1-dicyclopropyl-3-((2-fluoro-4-((2S)-1-oxo-1-(2-(trifluoromethyl)piperazin-1-yl)propan-2-yl)phenyl)amino)-3-oxopropan-2-yl)-1-isopropyl-1 H-pyrazole-5-carboxamide]: the IC50 is over 1000 nM.

Turning to `CC1CN(C(=O)[C@@H](C)c2ccc(NC(=O)[C@@H](NC(=O)c3ccnn3C(C)C)C(C3CC3)C3CC3)c(F)c2)C(C(F)(F)F)CO1` (stereo partly drawn) [Compound 135, N-((2S)-1,1-dicyclopropyl-3-((2-fluoro-4-((2S)-1-(2-methyl-5-(trifluoromethyl)morpholino)-1-oxopropan-2-yl)phenyl)amino)-3-oxopropan-2-yl)-1-isopropyl-1H-pyrazole-5-carboxamide], the IC50 lay in the range of 100 to 1000 nM.

Regarding `CC(=O)NC(C(=O)NCC(F)(F)F)c1ccc(NC(=O)[C@@H](NC(=O)c2ccnn2C(C)C)C(C2CC2)C2CC2)c(F)c1` (some centres unmarked) [Compound 190], the IC50 was over 1000 nM.

For `CC(C)n1nccc1C(=O)N[C@H](C(=O)Nc1ccc([C@H](C)C(=O)NC(C2CCOC2)C(F)(F)F)cc1F)C(C1CC1)C1CC1` (single isomer, unassigned) [Compound 151], the IC50 lay within 100 to 1000 nM.

With `CC(C)n1nccc1C(=O)N[C@H](C(=O)Nc1ccc([C@H](C)C(=O)NC(C2CC2)C(F)(F)F)cc1F)C(C1CC1)C1CC1` (stereo partly drawn) [Compound 26, N-((2S)-1,1-dicyclopropyl-3-((4-((2S)-1-((1-cyclopropyl-2,2,2-trifluoroethyl)amino)-1-oxopropan-2-yl)-2-fluorophenyl)amino)-3-oxopropan-2-yl)-1-isopropyl-1H-pyrazole-5-carboxamide], the IC50 was 100 to 1000 nM.

In the case of `CC(C)n1nccc1C(=O)N[C@H](C(=O)Nc1ccc([C@H](C)C(=O)NCC(F)(F)C(F)(F)F)cc1F)C(C1CC1)C1CC1` [Compound 44, N-((S)-1,1-dicyclopropyl-3-((2-fluoro-4-((S)-1-oxo-1-((2,2,3,3,3-pentafluoropropyl)amino)propan-2-yl)phenyl)amino)-3-oxopropan-2-yl)-1-isopropyl-1H-pyrazole-5-carboxamide], the IC50 lay in the range of 100 to 1000 nM.

On to `CC(C)n1nccc1C(=O)N[C@H](C(=O)Nc1ccc([C@H](C)C(=O)NC(C2CCOC2)C(F)(F)F)cc1F)C(C1CC1)C1CC1` (single isomer, unassigned) [Compound 152], for which the IC50 is 100 to 1000 nM.

As for `CC(C)n1nccc1C(=O)N[C@H](C(=O)Nc1ccc([C@H](C)C(=O)NC(CN)C(F)(F)F)cc1F)C(C1CC1)C1CC1` (stereo partly drawn) [Compound 157, N-((2S)-1-((4-((2S)-1-((3-amino-1,1,1-trifluoropropan-2-yl)amino)-1-oxopropan-2-yl)-2-fluorophenyl)amino)-3.3-dicyclopropyl-1-oxopropan-2-yl)-1-isopropyl-1H-pyrazole-5-carboxamide hydrochloride], the IC50 was 100 to 1000 nM.

Turning to `CC(C(=O)NCC(F)(F)F)c1cc(F)c(NC(=O)[C@@H](NC(=O)c2ccnn2C(C)C)C(C2CC2)C2CC2)cc1Br` (mixture of isomers) [Compound 113, N-((2S)-1-((5-bromo-2-fluoro-4-(1-oxo-1-((2,2,2-trifluoroethyl)amino)propan-2-yl)phenyl)amino)-3,3-dicyclopropyl-1-oxopropan-2-yl)-1-isopropyl-1H-pyrazole-5-carboxamide], the IC50 is 100 to 1000 nM.

For `CC(C)n1nccc1C(=O)N[C@H](C(=O)Nc1ccc([C@H](C)C(=O)NC(Cc2ccccn2)C(F)(F)F)cc1F)C(C1CC1)C1CC1` (stereo partly drawn) [Compound 27, N-((2S)-1,1-dicyclopropyl-3-((2-fluoro-4-((2S)-1-oxo-1-((1,1,1-trifluoro-3-(pyridin-2-yl)propan-2-yl)amino)propan-2-yl)phenyl)amino)-3-oxopropan-2-yl)-1-isopropyl-1H-pyrazole-5-carboxamide], the IC50 was over 1000 nM.

For `CC(C(=O)NC1CCC1(F)F)c1cc(F)c(NC(=O)[C@@H](NC(=O)c2ccnn2C(C)C)C(C2CC2)C2CC2)cc1C(F)(F)F` (single isomer, unassigned) [Compound 230], the IC50 fell in the range of 100 to 1000 nM.

As to `CC(C)n1nccc1C(=O)N[C@H](C(=O)Nc1ccc([C@H](C)C(=O)N2CC[C@H]2C(F)(F)F)cc1F)C(C1CC1)C1CC1` [Compound 64, N-((S)-1,1-dicyclopropyl-3-((2-fluoro-4-((S)-1-oxo-1-((S)-2-(trifluoromethyl)azetidin-1-yl)propan-2-yl)phenyl)amino)-3-oxopropan-2-yl)-1-isopropyl-1H-pyrazole-5-carboxamide], the IC50 fell in the range of 100 to 1000 nM.

`CC(C)n1nccc1C(=O)N[C@H](C(=O)Nc1ccc([C@H](C)C(=O)N2CC3(C2)CC(F)(F)C3)cc1F)C(C1CC1)C1CC1` [Compound 37]: the 50% inhibitory concentration (IC50) was over 1000 nM.

With `CC(=O)Nc1cc(NC(=O)[C@@H](NC(=O)c2ccnn2C(C)C)C(C2CC2)C2CC2)c(F)cc1C(C)C(=O)NCC(F)(F)F` (single isomer, unassigned) [Compound 159], the IC50 was under 100 nM.

Regarding `CC(C)n1nccc1C(=O)N[C@H](C(=O)Nc1ccc([C@H](C)C(=O)NC(c2ccccn2)C(F)(F)F)cc1F)C(C1CC1)C1CC1` (stereo partly drawn) [Compound 41, N-((2S)-1,1-dicyclopropyl-3-((2-fluoro-4-((2S)-1-oxo-1-((2,2,2-trifluoro-1-(pyridin-2-yl)ethyl)amino)propan-2-yl)phenyl)amino)-3-oxopropan-2-yl)-1-isopropyl-1 H-pyrazole-5-carboxamide], the IC50 was 100 to 1000 nM.

As for `CCn1nccc1C(=O)N[C@H](C(=O)Nc1cc(C)c(C(C)C(=O)N(C)CC(F)(F)F)cc1F)C(C1CC1)C1CC1` (single isomer, unassigned) [Compound 77], the IC50 fell in the range of 100 to 1000 nM.

As to `CC(C(=O)N(C)CC(F)(F)F)c1cc(F)c(NC(=O)[C@@H](NC(=O)c2ccnn2C(C)C)C(C2CC2)C2CC2)cc1CNCCO` (some centres unmarked) [Compound 227], the half-inhibitory concentration (IC50) lay in the range of 100 to 1000 nM.

Turning to `CC(C)n1nccc1C(=O)N[C@H](C(=O)Nc1ccc(C(N)C(=O)NCC(F)(F)F)cc1F)C(C1CC1)C1CC1` (single isomer, unassigned) [Compound 191], the IC50 lay in the range of 100 to 1000 nM.

Regarding `CCn1nccc1C(=O)N[C@H](C(=O)Nc1cc(C(F)(F)F)c(C(C)C(=O)NC(CO)C(F)(F)F)cc1F)C(C1CC1)C1CC1` (single isomer, unassigned) [Compound 240], the IC50 was under 100 nM.

`CC(C)n1nccc1C(=O)N[C@H](C(=O)Nc1ccc([C@H](C)C(=O)N2CC(O)CC2C(F)(F)F)cc1F)C(C1CC1)C1CC1` (single isomer, unassigned) [Compound 144]: the IC50 was over 1000 nM.

As to `CC(C)n1nccc1C(=O)N[C@H](C(=O)Nc1ccc([C@H](C)C(=O)NC(CNC(=O)OC(C)(C)C)C(F)(F)F)cc1F)C(C1CC1)C1CC1` (some centres unmarked) [Compound 154], the IC50 was 100 to 1000 nM.

With `CCn1nccc1C(=O)N[C@H](C(=O)Nc1ccc(CC(=O)N(C)C2(C(F)(F)F)CC2)cc1F)C1CCCCCC1` [Compound 5, (S)-N-(1-cycloheptyl-2-((2-fluoro-4-(2-(methyl(1-(trifluoromethyl)cyclopropyl)amino)-2-oxoethyl)phenyl)amino)-2-oxoethyl)-1-ethyl-1H-pyrazole-5-carboxamide], the IC50 was over 1000 nM.

Take `CC(C)n1nccc1C(=O)N[C@H](C(=O)Nc1ccc([C@H](C)C(=O)NC2(C(F)(F)F)COC2)cc1F)C(C1CC1)C1CC1` [Compound 43, N-((S)-1.1-dicyclopropyl-3-((2-fluoro-4-((S)-1-oxo-1-((3-(trifluoromethyl)oxetan-3-yl)amino)propan-2-yl)phenyl)amino)-3-oxopropan-2-yl)-1-isopropyl-1H-pyrazole-5-carboxamide]: the IC50 is over 1000 nM.

On to `CC(C)n1nccc1C(=O)N[C@H](C(=O)Nc1ccc(C(C(=O)NCC(F)(F)F)N2CCOCC2)cc1F)C(C1CC1)C1CC1` (single isomer, unassigned) [Compound 140], for which the IC50 was over 1000 nM.
